18 compounds from patent US11384066B1, “Heterocyclic compounds useful as aurora a selective inhibitors” (Jacobio Pharmaceuticals Co., Ltd., priority 2020, dated 2022) can be followed below.

In one data set the test system is NCI-H446 cells. Kind of data set: Cell proliferation assay (CellTiter-Glo), NCI-H446. The following applies: Homo sapiens, NCI-H446, 120 h, 5 days. It is filed as cell-based. The protocol:
(§1) Example B: Cell Proliferation Assay
(§2) NCI-H2171 and NCI-H446 cell proliferation analysis were conducted by CellTiter-Glo (Promega, Cat #G1111). The cells will be harvested respectively during the logarithmic growth period and counted with hemocytometer. […] Adjust NCI-H2171 and NCI-H446 cells concentrations to 1.0×10^5 cells/mL with complete medium (RPMI-1640 medium supplemented with 10% (v/v) fetal bovine serum). 100 μL/cell suspensions were added to 96-well plates, and the final cell densities were 1.0×10^4 cells/well. The plate will be cultured overnight in 5% CO2 and 95% humidity at 37° C. The next day, the test compound was dissolved in DMSO as stock solution. Then the different concentrations of compound were added into 96-well plates. The plates will be cultured for 5 days, then measured by means of CellTiter-Glo assay. 50 μL/cell CellTiter-Glo reagent was added into 96-well plates. Shock incubation for 5 min and then stand incubation for 10 min at room temperature. Record the Luminosity values using an microplate spectrophotometer (Spark, Tecan). Fit the data using GraphPad 8.0 and obtain IC50 values.
(§3) Formula: Survival (%)=(Lumtest−Lummedia control)/(Lumcell control−Lummedia control)×100%

Another data set has as its target Aurora A (Homo sapiens (Human), UniProt O14965). Kind of data set: Aurora A kinase assay (mobility shift assay). In kind it is biochemical. The protocol: (§4) Example A: Evaluation of Aurora a and Aurora B Inhibitory Effect—Kinase Assay
(§5) The inhibitory activities of a test compound against Aurora A and Aurora B were measured according to the following method.
(§6) The IC50 value of Aurora A and Aurora B kinase was performed by Sundia MediTech Co. Ltd. using Mobility shift assay.
(§7) • (1) Prepare a 1× kinase buffer [50 mM 4-(2-hydroxyethyl)-1-piperazineethanesulfonic acid (HEPES), PH 7.5, 0.01% Brij-35, 10 mM MgCl2, 2 mM dithiothreitol (DTT)]. • (2) Prepare compound:
(§8) The testing compound was dissolved with DMSO. The testing compound was diluted up to 100× final concentration in a 384-well plate. Transfer 250 nL of the compound dilution to a 384-well assay plate using Echo 550. 100% DMSO of 250 nL was added to the negative control well and the positive control well. • (3) Prepare a 2.5× enzyme solution using the above 1× kinase buffer. • (4) Add 10 μL of the 2.5× enzyme solution to the compound well and the positive control well of the 384-well assay plate. Add 10 μL of the 1× kinase buffer to the negative control well. • (5) The 384-well plate was centrifuged at 1000 rpm for 30 seconds and incubated at room temperature for 10 min. • (6) A mixture of ATP and Kinase substrate 21 with a final concentration of 25/15× was prepared by the 1× kinase buffer. • (7) Add 15 μL of the mixture of 25/15×ATP and kinase substrate solution 21 to start reaction. • (8) The 384-well plate was centrifuged at 1000 rpm for 30 seconds and incubated at room temperature. • (9) 30 μL of the stop and detection buffer was added to stop the kinase reaction and centrifuged at 1000 rpm for 30 seconds. • (10) Collect data on Caliper EZ ReaderII. Data Analysis:
(§9) Conversion %_sample is conversion rate data of samples. Conversion %_min is mean value of negative control (conversion rate data without enzyme activation). Conversion %_max is mean positive control (conversion rate data without compound).
(§10) The log of concentration is on the X axis, and the percentage inhibition is on the Y axis. Fit the Quantitative effect curves with log (inhibitor) vs. response—Variable slope in GraphPad Prism5 obtain IC50 values. Equation used is Y=Bottom+(Top−Bottom)/(1+10^((Log IC50−X)*HillSlope)).

For the next data set, the target named is Aurora B (Homo sapiens (Human), UniProt Q96GD4). Kind of data set: Aurora B kinase assay (mobility shift assay). In kind it is biochemical. To be noted: ratio of Aurora B IC50 to Aurora A IC50. Here is the method:
as §4, §5, §6, §7, §8, §9, §10

For another data set, the system named is NCI-H2171 cells. Kind of data set: Cell proliferation assay (CellTiter-Glo), NCI-H2171. In kind it is cell-based. The following applies: Homo sapiens, NCI-H2171, 120 h, 5 days. Here is the method:
as §1, §2, §3

A further data set in a line: PK in rat. To be noted: SD male rats. It is filed as in vivo. The protocol:
The compounds were dissolved into 10% DMSO, 30% PEG400, and 60% saline to obtain a solution. SD male rats were given the compound orally and intravenously. Then plasma samples were collected at 0 hour (pre-dose), 0.25, 0.5, 1, 2, 4, 7, 24 hours post-dose. Plasma drug concentration was detected by LC-MS/MS. Pharmacokinetic parameters were calculated using WinNonlin's software with non-compartmental model.

Chain of Aurora B (Q96GD4 whole entry): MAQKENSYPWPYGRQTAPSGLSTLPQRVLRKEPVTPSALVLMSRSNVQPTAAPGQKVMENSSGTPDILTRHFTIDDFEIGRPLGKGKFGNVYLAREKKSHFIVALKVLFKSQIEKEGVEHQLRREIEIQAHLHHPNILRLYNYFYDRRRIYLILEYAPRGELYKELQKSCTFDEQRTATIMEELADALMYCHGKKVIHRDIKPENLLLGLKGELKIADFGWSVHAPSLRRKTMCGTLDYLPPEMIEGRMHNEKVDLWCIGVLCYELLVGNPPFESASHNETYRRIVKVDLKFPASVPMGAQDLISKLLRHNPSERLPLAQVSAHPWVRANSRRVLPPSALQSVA
Chain of Aurora A (O14965 whole entry): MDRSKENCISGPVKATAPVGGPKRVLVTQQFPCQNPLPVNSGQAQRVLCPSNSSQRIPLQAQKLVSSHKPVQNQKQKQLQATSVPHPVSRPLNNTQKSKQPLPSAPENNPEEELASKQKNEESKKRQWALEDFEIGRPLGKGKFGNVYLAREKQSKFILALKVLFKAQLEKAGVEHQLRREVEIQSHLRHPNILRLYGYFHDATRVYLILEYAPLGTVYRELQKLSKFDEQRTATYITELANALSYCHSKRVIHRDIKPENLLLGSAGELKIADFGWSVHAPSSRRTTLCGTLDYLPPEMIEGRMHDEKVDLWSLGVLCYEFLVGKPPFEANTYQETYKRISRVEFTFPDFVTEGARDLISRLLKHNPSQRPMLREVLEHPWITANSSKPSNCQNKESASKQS

The IC50 is the concentration needed to halve the response being measured. On to `CC[C@@H]1C[C@](Cc2nc(Nc3cc(C)[nH]n3)ccc2F)(C(=O)O)CCN1Cc1cccc(Cl)c1F` [Example 8, (2R,4R)-1-(3-chloro-2-fluorobenzyl)-2-ethyl-4-((3-fluoro-6-((5-methyl-1H-pyrazol-3-yl)amino)pyridin-2-yl)methyl) piperidine-4-carboxylic acid], for which the half-inhibitory concentration (IC50) came to 119 nM in the data set with NCI-H446 cells, 1.2 nM on Aurora A and 75 nM in the data set with NCI-H2171 cells. Further, the “IC50 Ratio Aur B/Aur A” value on Aurora B was determined as 1288.

On to `Cc1cc(Nc2cc(F)cc(C[C@@]3(C(=O)O)CCN(Cc4cccc(Cl)c4F)[C@H](C)C3)n2)n[nH]1` [Example 30, (2R,4R)-1-(3-chloro-2-fluorobenzyl)-4-((4-fluoro-6-((5-methyl-1H-pyrazol-3-yl)amino)pyridin-2-yl)methyl)-2-methylpiperidine-4-carboxylic acid], for which the IC50 in the data set on NCI-H446 cells is 128 nM; in the data set with NCI-H2171 cells, 62 nM.

With `Cc1cc(Nc2cc(C)c(F)c(CC3(C(=O)O)CCN(Cc4cccc(F)c4F)CC3)n2)n[nH]1` [Example 52], the IC50 on Aurora A came to 1.3 nM. The “IC50 Ratio Aur B/Aur A” value at Aurora B stood at 1285.

Regarding `Cc1cc(Nc2cc(C)c(F)c(C[C@@]3(C(=O)O)CCN(Cc4cccc(Cl)c4Cl)[C@H](C)C3)n2)n[nH]1` [Example 53, (2R,4R)-1-(2,3-dichloro-benzyl)-4-((3-fluoro-4-methyl-6-((5-methyl-1H-pyrazol-3-yl)-amino)pyridin-2-yl)methyl)-2-methylpiperidine-4-carboxylic acid], the half-maximal inhibitory concentration (IC50) in the data set on NCI-H446 cells amounted to 154 nM; on Aurora A it was 0.55 nM; with NCI-H2171 cells, 57 nM. Moreover, the “IC50 Ratio Aur B/Aur A” value at Aurora B was determined as 562.

Take `Cc1cc(Nc2cc(C)c(F)c(CC3(C(=O)O)CCN(Cc4cccc(Cl)c4Cl)CC3)n2)n[nH]1` [Example 54]: the IC50 at Aurora A was 0.43 nM. The “IC50 Ratio Aur B/Aur A” value at Aurora B is 2041.

As for `Cc1cc(Nc2cc(C)c(F)c(CC3(C(=O)O)CCN(Cc4c(F)ccc(Cl)c4F)CC3)n2)n[nH]1` [Example 55, 1-(3-chloro-2,6-difluoro-benzyl)-4-((3-fluoro-4-methyl-6-((5-methyl-1H-pyrazol-3-yl)-amino)pyridin-2-yl)methyl) piperidine-4-carboxylic acid], the IC50 at Aurora A is 0.88 nM. Further, the “IC50 Ratio Aur B/Aur A” value on Aurora B was 3835.

Take `CCc1cc(Nc2cc(C)[nH]n2)nc(CC2(C(=O)O)CCN(Cc3cccc(Cl)c3F)CC2)c1F` [Example 66, 1-(3-chloro-2-fluorobenzyl)-4-((4-ethyl-3-fluoro-6-((5-methyl-1H-pyrazol-3-yl)amino)-pyridin-2-yl)methyl)piperidine-4-carboxylic acid]: the half-inhibitory concentration (IC50) at Aurora A stood at 0.57 nM. Moreover, the “IC50 Ratio Aur B/Aur A” value on Aurora B is 716.

For the compound `Cc1cc(Nc2cc(C#N)c(F)c(C[C@@]3(C(=O)O)CCN(Cc4cccc(Cl)c4F)[C@H](C)C3)n2)[nH]n1` [Example 67, (2R,4R)-1-(3-chloro-2-fluorobenzyl)-4-((4-cyano-3-fluoro-6-((3-methyl-1H-pyrazol-5-yl)amino)pyridin-2-yl)methyl)-2-methylpiperidine-4-carboxylic acid], the concentration for half-maximal inhibition (IC50) at Aurora A came to 1.6 nM. For the same compound, on Aurora B, the “IC50 Ratio Aur B/Aur A” value was found to be 759.

In the case of `CC(=O)c1cc(Nc2cc(C)[nH]n2)nc(CC2(C(=O)O)CCN(Cc3cccc(Cl)c3F)CC2)c1F` [Example 69, 4-((4-acetyl-3-fluoro-6-((5-methyl-1H-pyrazol-3-yl)-amino)pyridin-2-yl)methyl)-1-(3-chloro-2-fluorobenzyl)-piperidine-4-carboxylic acid], the 50% inhibitory concentration (IC50) with NCI-H446 cells is 87 nM; in the data set with NCI-H2171 cells, 41 nM.

Regarding `Cc1cc(Nc2nc(C[C@@]3(C(=O)O)CCN(Cc4cccc(Cl)c4F)[C@H](C)C3)c(F)c(Cl)c2F)n[nH]1` [Example 74], at Aurora A, the 50% inhibitory concentration (IC50) was 0.67 nM. At Aurora B, the “IC50 Ratio Aur B/Aur A” value is 3358.

On to `Cc1cc(Nc2nc(CC3(C(=O)O)CCN(Cc4cccc(Cl)c4F)CC3)cc(C)c2F)n[nH]1` [Example 79, 1-(3-chloro-2-fluorobenzyl)-4-((5-fluoro-4-methyl-6-((5-methyl-1H-pyrazol-3-yl)amino)-pyridin-2-yl)methyl)piper-idine-4-carboxylic acid], for which the half-maximal inhibitory concentration (IC50) on Aurora A was determined as 0.61 nM. The “IC50 Ratio Aur B/Aur A” value at Aurora B is given as 2036.

For the compound `Cc1cc(Nc2cc(S(C)(=O)=O)c(F)c(C[C@@]3(C(=O)O)CCN(Cc4cccc(Cl)c4F)[C@H](C)C3)n2)n[nH]1` [Example 81, (2R,4R)-1-(3-chloro-2-fluorobenzyl)-4-((3-fluoro-6-((5-methyl-1H-pyrazol-3-yl)amino)-4-(methylsulfonyl)pyridin-2-yl)methyl)-2-methylpiperidine-4-carboxylic acid], the IC50 on Aurora A was 0.77 nM. At Aurora B, the “IC50 Ratio Aur B/Aur A” value came to 1353.

`Cc1cc(Nc2nc(C[C@@]3(C(=O)O)CCN(Cc4cccc(Cl)c4F)[C@H](C)C3)c(F)c(Cl)c2Cl)n[nH]1` [Example 84, (2R,4R)-1-(3-chloro-2-fluorobenzyl)-4-((4,5-dichloro-3-fluoro-6-((5-methyl-1H-pyrazol-3-yl)amino)pyridin-2-yl)methyl)-2-methylpiperidine-4-carboxylic acid]: at Aurora A, the IC50 was 1.4 nM. For the same compound, at Aurora B, the “IC50 Ratio Aur B/Aur A” value is given as 4026.

As for `Cc1cc(Nc2nc(C[C@@]3(C(=O)O)CCN(Cc4cccc(Cl)c4F)[C@H](C)C3)cc(C#N)c2F)n[nH]1` [Example 90, (2R,4R)-1-(3-chloro-2-fluorobenzyl)-4-((4-cyano-5-fluoro-6-((5-methyl-1H-pyrazol-3-yl)amino)pyridin-2-yl)methyl)-2-methylpiperidine-4-carboxylic acid], at Aurora A, the IC50 worked out at 0.54 nM. Moreover, the “IC50 Ratio Aur B/Aur A” value at Aurora B is reported as 1479.

With `Cc1cc(Nc2nc(C[C@@]3(C(=O)O)CCN(Cc4cccc(Cl)c4F)[C@H](C)C3)c(F)cc2F)n[nH]1` [Example 91, (2R,4R)-1-(3-chloro-2-fluorobenzyl)-4-((3,5-difluoro-6-((5-methyl-1H-pyrazol-3-yl)amino)pyridin-2-yl)methyl)-2-methylpiperidine-4-carboxylic acid], the half-inhibitory concentration (IC50) at Aurora A came out at 1.1 nM. The “IC50 Ratio Aur B/Aur A” value at Aurora B is given as 451.

In the case of `Cc1cc(Nc2nc(CC3(C(=O)O)CCN(Cc4cccc(Cl)c4F)CC3)c(F)cc2F)n[nH]1` [Example 92], on Aurora A, the IC50 is 0.74 nM. Moreover, the “IC50 Ratio Aur B/Aur A” value on Aurora B amounted to 4393.

In the case of `Cc1[nH]nc(Nc2ccc(F)c(CC3(C(=O)O)CCN(Cc4cccc(Cl)c4F)C(C)C3)n2)c1C` (centres unmarked) [Example 102, 1-(3-chloro-2-fluorobenzyl)-4-((6-((4,5-dimethyl-1H-pyrazol-3-yl)-amino)-3-fluoropyridin-2-yl)-methyl)-2-methylpiperidine-4-carb-oxylic acid], the IC50 on Aurora A is 0.93 nM. Besides, the “IC50 Ratio Aur B/Aur A” value on Aurora B is 804.

The term Vss denotes a proportionality between amount in the body and measured concentration, not a real space. Read a high Vss as wide distribution into tissue. In general, Cmax refers to the peak of the concentration-time curve. `Cc1cc(Nc2ccc(F)c(C[C@@]3(C(=O)O)CCN(Cc4cccc(Cl)c4F)[C@H](C)C3)n2)n[nH]1` [LY3295668, reference compound]: in the data set “PK in rat” (IV: 3 mg/kg), the “CL” value is 1.52 mL/min/kg and the distribution volume (Vss) was 0.29 L/kg. Also, in the data set “PK in rat” (PO: 10 mg/kg), the “AUClast” value was 91211 ng·h/mL, the highest concentration (Cmax) worked out at 15033 ng/mL and the “t1/2” value came out at 3.37 h. Also, the F% in the data set “PK in rat” (PO: 10 mg/kg vs IV: 3 mg/kg) is listed as 81%.
